Laboratory results reported in patent US20210310040A1, “SUSCEPTIBILITY AND RESISTANCE OF MICROORGANISMS” (priority 2017, published 2021).
In brackets after ≈: the same amount, converted by molar mass.

Tests used:
K. pneumoniae IS-007 [1] = test: Colorimetric sensor array susceptibility test on solid growth media; assay type: cell-based, Klebsiella pneumoniae
Text: (§1) To detect and identify a microorganism by species and/or strain, a sample including the microorganism is placed in a container including culture medium and a colorimetric array, and the temporal response of the sensors to the metabolic products of the microorganism is monitored. Susceptibility can be assessed by inoculating a growth medium including a substance (e.g., an antibiotic) with a microorganism and monitoring the response of the sensors while also monitoring the response of a control (e.g., no antibiotic).
(§2) FIG. 8 depicts an embodiment of a container 800 configured for use to assess a susceptibility or resistance of microorganisms. Container 800 includes base 802 and lid 804, with wells 806 positioned in base 802 opposite colorimetric sensor arrays 808 on lid 804. Microorganisms may be placed in contact with growth medium (e.g., a solid or liquid growth medium) in wells 806. A substance (e.g., a drug such as an antibiotic) may be added to the growth medium. In one example, rows and columns of wells 802 in container 800 may be used for different microorganisms, different substances (e.g., drugs including antibiotics that may potentially kill the microorganisms), and/or different concentrations of substances. After samples are loaded on wells 802, a lid 804 may be positioned over base 802, such that each colorimetric sensor array 808 is proximate a well 806 and in gaseous (or liquid) communication. In other embodiments, various other configurations could be utilized to bring the gas and volatile organic compounds emitted from the sample into gaseous proximity of the sensor array 808 at sufficient gaseous concentrations. The response of the sensor arrays 808 recorded by various detectors may then be assessed in order to determine a susceptibility or resistance of the various antibiotics or substances cultured with the sample. Susceptibility may be assessed via temporal response of the sensors in colorimetric sensor arrays 808 as described herein. Container 800 can be positioned in an apparatus (e.g., apparatus 700) for automated assessment of susceptibility and/or resistance.
(§3) FIGS. 9A-B show susceptibility of K. pneumoniae strains obtained in 6 hours in Muller-Hinton agar (x axis indicates time in hours). Susceptibility is indicated by a lack of metabolic products compared to controls (no antibiotic). […] FIGS. 10A-C show susceptibility of S. aureus strains obtained in 6 hours in Muller-Hinton agar.
(§4) In another susceptibility test, three strains of K. pneumoniae were inoculated onto the solid growth media with no antibiotic (control), piperacillin/tazobactam (PIP/TAZO) at concentrations of 16 ug/ml and 4 ug/ml, Cefepime at 8 ug/ml and Meropenem at 1 ug/ml. […] K. pneumoniae IS-020 was susceptible to all 3 antibiotics in agreement with known susceptibility information that this strain is susceptible to PIP/Tazo at <4 ug/ml, Cefepime <1 ug/ml and Meropenem at <0.25 ug/ml). K. pneumoniae IS-133 is known to be resistant at concentrations of PIP/Tazo below 128 ug/ml, Cefepime below 64 ug/ml and Meropenem below 16 ug/ml.

K. pneumoniae IS-020 [2] = test: as above; assay type: cell-based, Klebsiella pneumoniae
Text: as §1, §2, §3, §4

K. pneumoniae IS-007 [3] = settings: cited from earlier work
K. pneumoniae IS-020 [4] = settings: cited from earlier work
K. pneumoniae IS-133 = settings: cited from earlier work
E. coli (AR85) = test: Susceptibility by perturbation of VOCs, single indicator response with antibiotic; assay type: cell-based; settings: Escherichia coli; observed after 2.5 hours, FIG. 50; read-out: minimum inhibitory concentration (MIC)
Text: (§5) However, it has been discovered that detection of changes in VOC output of microorganism—in addition to changes in the number of microorganisms—can be detected by the sensor 808 after application of antibiotics. The change in the sensor 808 response can also be correlated to susceptibility of the microorganism to antibiotics. For instance, it has been discovered that after application of antibiotics, certain sensors decrease or show less response at certain concentrations. This change in VOC output can be correlated to the resistance or susceptibility of the microorganisms in the sample to the antibiotic or other substance introduced. In other examples, a change in compound output that remain in solution (not limited to VOCs) may be correlated to a susceptibility of the microorganisms.
FIG. 50 illustrates a graph showing the sensor response of a single sensor 808, dye or indicator to a sample of E. coli incubated in the presence of different concentrations of Ertapenem—a Carbapenem family of antibiotic. As illustrated, the single indicator can not only determine whether this strain of E. coli (AR85) is resistant to Ertapenem, but also the minimum inhibitory concentration (“MIC”). As illustrated, the minimum inhibitory concentration of 2 μg/ml is observed only after 2.5 hours. […]

ATCC 25922 (Pan-S) = test: Susceptibility by perturbation of VOCs, single indicator response after addition of antibiotic; assay type: cell-based, E. coli
Text: as §5
For instance, FIG. 48 illustrates an example of the response of the red spectrum of a single indicator (e.g. an indicator containing ZnTPP and Bromophenol Blue) on the sensor 808 in the presence of a sample. As shown, the antibiotic is added at 0.5 hours—in the example of the susceptible microorganism ATCC 25922 (Pan-S), the indicator red component drops off dramatically. The results can be noticed almost a half an hour to an hour after adding the antibiotic—far faster than to notice a general decline in emission of VOCs due to cell death or lack of growth of microorganisms. […]

E. coli AR 84 (ESBL) = test: as above; assay type: cell-based; settings: at all concentrations of Ampicillin
Text: as §5
In the resistant strain illustrated in FIG. 48, AR 84 (ESBL), the antibiotic is added at the same time, but the red component of the sensor response continues to increase over time. […] Accordingly, in this embodiment, the sensor 808 response of a single indicator may be monitored. Changes in the slope of the indicator response over time, or decreases in the indicator may be monitored to determine when there is potentially a susceptible organism. […]

S. aureus 29213 (MSSA) = test: Susceptibility by perturbation of VOCs, single indicator response with antibiotic; assay type: cell-based; settings: Staphylococcus aureus, observed in about 2.5 hours, FIG. 52
Text: as §5
FIG. 52 illustrates two graphs showing the MIC observed for two different antibiotics to S. aureus 29213 (MSSA). The graph on the left portion of FIG. 52 illustrates a MIC of 1 μg/ml to Cefoxitin and the graph on the right illustrations a MIC of 0.5 μg/ml of Vancomycin.

S. aureus IS-120 [5] = test: Colorimetric sensor array susceptibility test on solid growth media; assay type: cell-based, Staphylococcus aureus
Text: as §1, §2, §3
(§6) In another susceptibility test, three strains of S. aureus were inoculated onto the solid growth media. […] S. aureus IS-124 was susceptible to both antibiotics in agreement with known susceptibility information that this strain is susceptible to Oxacillin and Vancomycin.

S. aureus IS-123 [6] = test: as above; assay type: cell-based, Staphylococcus aureus
Text: as §1, §2, §3, §6

S. aureus IS-124 [7] = test: as above; assay type: cell-based, Staphylococcus aureus
Text: as §1, §2, §3, §6

S. aureus IS-120 [8] = settings: cited from earlier work
S. aureus IS-123 [9] = settings: cited from earlier work
S. aureus IS-124 [10] = settings: cited from earlier work
[11] = PIP/TAZO at 16 ug/ml and 4 ug/ml

Compound: CO/N=C(\C(=O)N[C@@H]1C(=O)N2C(C(=O)[O-])=C(C[N+]3(C)CCCC3)CS[C@H]12)c1csc(N)n1 [Cefepime]
- susceptibility or resistance by sensor response compared to control (K. pneumoniae IS-007 [1]; Cefepime at 8 ug/ml): resistance
- susceptibility or resistance by sensor response compared to control (K. pneumoniae IS-020 [2]; Cefepime at 8 ug/ml): susceptible
- known susceptibility information: concentration at which strain is susceptible (K. pneumoniae IS-007 [3]): < 0.25 µg/mL
- known susceptibility information: concentration below which strain is resistant (K. pneumoniae IS-007 [3]): below 64 ug/ml
- known susceptibility information: concentration at which strain is susceptible (K. pneumoniae IS-020 [4]): < 1 µg/mL
- known to be resistant at concentrations below (K. pneumoniae IS-133): below 64 ug/ml

Compound: C[C@@H](O)[C@H]1C(=O)N2C(C(=O)O)=C(S[C@@H]3CN[C@H](C(=O)Nc4cccc(C(=O)O)c4)C3)[C@H](C)[C@H]12 [Ertapenem]
- MIC (E. coli (AR85)): 2 µg/mL (≈ 4.21 µM)

Compound: CC1(C)S[C@@H]2[C@H](NC(=O)[C@H](N)c3ccccc3)C(=O)N2[C@H]1C(=O)O [Ampicillin]
- sensor response of single indicator after addition of antibiotic (FIG. 49) (ATCC 25922 (Pan-S); Ampicillin at 0.5 mg/ml and 1.0 mg/ml): same response
- MIC (ATCC 25922 (Pan-S); Escherichia coli, ATCC25922, single sensor or indicator, FIG. 53): 1 to 8 µg/mL (≈ 2.86 to 22.9 µM)
- sensor response of single indicator after addition of antibiotic (FIG. 49) (E. coli AR 84 (ESBL)): decline in sensor response

Compound: CO[C@@]1(NC(=O)Cc2cccs2)C(=O)N2C(C(=O)O)=C(COC(N)=O)CS[C@@H]21 [Cefoxitin]
- MIC (S. aureus 29213 (MSSA)): 1 µg/mL (≈ 2.34 µM)

Compound: Cc1onc(-c2ccccc2)c1C(=O)N[C@@H]1C(=O)N2[C@@H]1SC(C)(C)[C@@H]2C(=O)O [Oxacillin]
- susceptibility or resistance by sensor response (S. aureus IS-120 [5]; Oxacillin at 2 ug/ml): resistance
- susceptibility or resistance by sensor response (S. aureus IS-123 [6]; Oxacillin at 2 ug/ml): resistance
- susceptibility or resistance by sensor response (S. aureus IS-124 [7]): susceptible
- known susceptibility information: concentration below which strain is resistant (S. aureus IS-120 [8]): below 4 ug/ml
- known susceptibility information: concentration below which strain is resistant (S. aureus IS-123 [9]): below 4 ug/ml
- known susceptibility information: susceptible or resistant (S. aureus IS-124 [10]): susceptible

Compound: C[C@@H](O)[C@H]1C(=O)N2C(C(=O)O)=C(S[C@@H]3CN[C@H](C(=O)N(C)C)C3)[C@H](C)[C@H]12 [Meropenem]
- susceptibility or resistance by sensor response compared to control (K. pneumoniae IS-007 [1]; Meropenem at 1 ug/ml): susceptibility
- susceptibility or resistance by sensor response compared to control (K. pneumoniae IS-020 [2]; Meropenem at 1 ug/ml): susceptible
- known susceptibility information: concentration at which strain is susceptible (K. pneumoniae IS-020 [4]): < 0.25 µg/mL
- known to be resistant at concentrations below (K. pneumoniae IS-133): below 16 ug/ml

Compound: CN[C@H](CC(C)C)C(=O)N[C@H]1C(=O)N[C@@H](CC(N)=O)C(=O)N[C@H]2C(=O)N[C@H]3C(=O)N[C@H](C(=O)N[C@H](C(=O)O)c4cc(O)cc(O)c4-c4cc3ccc4O)[C@H](O)c3ccc(c(Cl)c3)Oc3cc2cc(c3O[C@@H]2O[C@H](CO)[C@@H](O)[C@H](O)[C@H]2O[C@H]2C[C@](C)(N)[C@H](O)[C@H](C)O2)Oc2ccc(cc2Cl)[C@H]1O [Vancomycin]
- susceptibility or resistance by sensor response (S. aureus IS-120 [5]; Vancomycin at 1-2 ug/ml): susceptibility
- susceptibility or resistance by sensor response (S. aureus IS-123 [6]; Vancomycin at 1-2 ug/ml): susceptibility
- susceptibility or resistance by sensor response (S. aureus IS-124 [7]): susceptible
- known susceptibility information: susceptible or resistant (S. aureus IS-120 [8]): susceptible
- known susceptibility information: susceptible or resistant (S. aureus IS-123 [9]): susceptible
- known susceptibility information: susceptible or resistant (S. aureus IS-124 [10]): susceptible

Compound: piperacillin/tazobactam [PIP/Tazo]
- susceptibility or resistance by sensor response compared to control (K. pneumoniae IS-007 [1]; [11]): susceptibility
- susceptibility or resistance by sensor response compared to control (K. pneumoniae IS-020 [2]; [11]): susceptible
- known susceptibility information: concentration at which strain is susceptible (K. pneumoniae IS-007 [3]): 4 µg/mL
- known susceptibility information: concentration at which strain is susceptible (K. pneumoniae IS-020 [4]): < 4 µg/mL
- known to be resistant at concentrations below (K. pneumoniae IS-133): below 128 ug/ml
